This is an account of results in PMC5271370, “A High-Content Assay Enables the Automated Screening and Identification of Small Molecules with Specific ALDH1A1-Inhibitory Activity” (PLoS ONE, 2017).

One test has as its target T1, Human ALDH1A3 (Homo sapiens, UniProt P47895).
T1 construct: purchased ThermoFisher 11636H07E50
T1 sequence (P47895 1-512): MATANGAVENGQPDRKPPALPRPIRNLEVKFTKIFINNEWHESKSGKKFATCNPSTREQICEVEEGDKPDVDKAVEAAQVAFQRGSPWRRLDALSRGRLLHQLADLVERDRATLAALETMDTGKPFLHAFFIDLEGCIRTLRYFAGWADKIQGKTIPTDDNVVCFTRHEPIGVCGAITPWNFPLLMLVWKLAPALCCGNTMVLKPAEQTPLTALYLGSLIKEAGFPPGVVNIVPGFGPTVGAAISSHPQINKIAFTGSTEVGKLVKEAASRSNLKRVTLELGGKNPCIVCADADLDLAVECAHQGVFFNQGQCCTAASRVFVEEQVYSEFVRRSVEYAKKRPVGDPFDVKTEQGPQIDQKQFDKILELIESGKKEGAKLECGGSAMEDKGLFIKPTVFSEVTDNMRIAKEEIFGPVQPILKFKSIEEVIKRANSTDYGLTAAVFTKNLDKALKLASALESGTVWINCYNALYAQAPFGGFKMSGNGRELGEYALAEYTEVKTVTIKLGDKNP
The test is described as follows: 1,536-well enzymatic assay (NADH fluorescence), ALDH1A3. It counts as biochemical.
Conditions: not given
The text has this:
To validate our optimized assay, we assembled a set of 20 previously reported ALDH inhibitors, with varying degrees of target specificity (Table 1 and S4 Fig). […] Briefly, the assay measures the dehydrogenase activity of recombinant human ALDH1A1, ALDH1A2, ALDH1A3, ALDH2 or ALDH3A1 using NAD(P)^+ and either propionaldehyde or benzaldehyde as substrates. An orthogonal resorufin-based assay format was also run with isolated ALDH1A1 to rule out potential false positives due to intrinsic compound fluorescence.
Human ALDH1A1 and ALDH3A1 were expressed and purified as described elsewhere. Human ALDH2 was purchased from Abcam (ab87415). Human ALDH1A2 and ALDH1A3 were purchased from MyBioSource (MBS1005929; San Diego, CA) and ThermoFisher (11636H07E50), respectively. The inhibitory activity of compounds against ALDHs was measured according to protocols described previously. Briefly, 3 μL of enzyme (final concentrations of 20 nM for ALDH1A1, 50 nM for ALDH1A2, 50 nM for ALDH1A3, 75 nM for ALDH2 and 5 nM for ALDH3A1) in assay buffer (100 mM HEPES pH 7.5 with 0.01% Tween 20) were dispensed into a 1,536-well solid-bottom black plate (Greiner Bio One, Monroe, NC). […] Samples were incubated (room temperature, protected from light) for 15 minutes followed by a 1 μL substrate addition of NAD^+ and Propionaldehyde (final concentrations of 1 mM and 80 μM, respectively) for ALDH1A1, 1A2, 1A3, and ALDH2 or NADP^+ and benzaldehyde (final concentrations of 1 mM and 200 μM, respectively) for ALDH3A1. Plates were centrifuged at 1,000 rpm for 15 seconds, then read in kinetic mode on a ViewLux High-throughput CCD imager (PerkinElmer, Waltham, MA) equipped with standard UV fluorescence optics (340 nm excitation, 450 nm emission) for 5 (ALDH1A1, ALDH1A2, ALDH2, ALDH3A1) or 30 (ALDH1A3) minutes. The change in fluorescence intensity over the 5- or 30-minute reaction period was normalized against no-inhibitor and no-enzyme controls and the resulting percent inhibition data were fitted to a 4-parameter Hill equation. Bay-11 7085 was used as intraplate control. To account for artifacts due to intrinsic compound fluorescence in the above spectrum, compounds were also tested in an orthogonal resorufin assay format with optics of excitation 525 nm/emission 598 nm as described before. The same parameters as the NADH assay were used for the resorufin assay, with the addition of (final) 133 μg/mL diaphorase and 37 μM resazurin to the assay solution. Same controls were used in both formats.
Turning to `O=c1c(-c2ccc(O)cc2)coc2cc(O[C@@H]3O[C@H](CO)[C@@H](O)[C@H](O)[C@H]3O)ccc12` [Daidzin], inhibition was half-maximal at 24.1 µM (IC50).

For the molecule `Cc1cc2c(C(C)C)c(O)c(O)c(C=O)c2c(O)c1-c1c(C)cc2c(C(C)C)c(O)c(O)c(C=O)c2c1O` [Gossypol], the midpoint of inhibition, the IC50, lay at 8.55 µM.

Staying with this test, now noted: hits of dual cell-based screen (Table 2); read-out: Biochemical IC50 ALDH1A3.
For `C[S+](=O)([O-])c1ccc(Cn2c3c(c4cc(F)cc(F)c42)CCCC3CC(=O)O)cc1` [L-670596], the IC50 (as a rule, the concentration that inhibits the measured activity by half) was found to be 35.5 µM.

Regarding `CC(C)N(C(=O)CCl)c1ccccc1` [Propachlor], the IC50 came out at 5.62 µM.

The same test, now with this note: validation set; 50 nM enzyme, NAD+ and propionaldehyde; read-out: Biochemical IC50 ALDH1A3.
Consider `CC(C)=CCCC(C)=CC=O` (mixture of isomers) [Citral], for which the IC50 was 2.7 µM.

For the molecule `COc1ccc(C(=O)CCN(C)C)cc1F` [Aldi-2], the 50% inhibitory concentration (IC50) turned out to be 0.24 µM.

Consider `CC(C)(C)c1ccc(S(=O)(=O)/C=C/C#N)cc1` [Bay-11-7085], for which the IC50 was 0.68 µM.

Take `Cc1nc2ccccc2n1S(=O)(=O)c1ccc(F)cc1` [CB7]: the IC50 was 12.1 µM.

As to `CCOc1ccc(NCC(=O)Nc2ccc(Cl)cc2C)cc1` [CID 725345], the IC50 came out at 3.82 µM.

Regarding `COc1cccc2cc(C(=O)CC3(O)C(=O)N(Cc4ccccc4)c4ccccc43)c(=O)oc12` (stereo not shown) [CID 2929292], the IC50 amounted to 24.1 µM.

In the case of `CCN(CC)c1ccc(C=O)cc1` [DEAB, 4-N,N-diethylaminobenzaldehyde], the IC50 amounted to 24.1 µM.

For the molecule `CCN(CC)C(=S)SSC(=S)N(CC)CC` [Disulfiram], the IC50 came out at 0.68 µM.

As for `Nc1ccccc1C(=O)CC(N)C(=O)O` (stereo not shown) [Kynurenine], the concentration for half-maximal inhibition (IC50) turned out to be 27 µM.

On to `C#CCN(C)Cc1ccccc1` [Pargyline], for which the IC50 worked out at 17 µM.

On to `O=C1Nc2ccccc2C1=O` [indoline-2,3-dione], for which the IC50 turned out to be 7.62 µM.

Take CVT-10216: the IC50 was determined as 27 µM.
